From patent US6710064B2, “Hydantoin compounds useful as anti-inflammatory agents” (Bristol-Myers Squibb Co., priority 2000, dated 2004)

**Q.** With `O=C1[C@H]2C[C@@H](OCc3ccc(Br)cc3)CN2C(=O)N1c1cc(Cl)cc(Cl)c1` [Example 6, (7aR,6R)-2-(3,5-dichloro-phenyl)-6-(4-bromobenzyloxy)-tetrahydro-pyrrolo[1,2-c]imidazole-1,3-dione] as the compound, how does the melting point read?
**A.** 135 °C
